Experimental data taken from PubChem BioAssay AID687029 (Broad Institute, 2013).

These compounds were tested on RMG-1 viability, CellTiterGlo ATP luminescence, 96 h (assay: cytotoxicity in PAX8-dependent RMG-1 cells, dose response, cell-based, cherry-pick (AID 687029)).

Question: With CCCNC(=O)Nc1ccc2c(c1)OC[C@H](C)N(Cc1ccc(-c3ccccn3)cc1)C[C@@H](C)[C@@H](OC)CN(C)C2=O as the compound, how does the AC50 read?
Answer: The AC50 was under 260 nM.

Question: With COCCn1c(C)cc(C2=NNC(=NC3CC3)SC2)c1C as the compound, how does the AC50 read?
Answer: Its AC50 is under 260 nM.

Question: With COc1cc(C2C3=C(COC3=O)Oc3cc4c(cc32)OCO4)cc(OC)c1O (stereo not given) as the compound, how does the AC50 read?
Answer: Its AC50 is under 260 nM.

Question: With COc1ccc(C(=O)NC(=S)NNC(=O)c2c(-c3ccccc3)noc2C)cc1 as the compound, how does the AC50 read?
Answer: Its AC50 is under 260 nM.

Question: Which AC50 does the source give for Cc1cc(CN(C)C(=O)c2cc(COc3ccc4ncccc4c3)on2)on1 here?
Answer: Its AC50 is under 260 nM.
